Data set [1] concerns tomato plants (Solanum lycopersicum). Nature of the data set: Phytotoxicity after foliar application. It counts as in vivo. Also noted: key to Phytotoxicity, Tomato sp.: No toxicity (−); symptoms appear on less than 5% of the leaves was rated as minimal (+); 5 to 50% was rated as moderate (++); above 50% was rated as severe (+++). Particulars: for Phytotoxicity, Tomato sp.: foliar, 72 h. Here is the method: The phytotoxicity of the ZnNP adjuvant with and without streptomycin was tested on tomato plants (Solanum lycopersicum, model fruit plant, 11 cm tall) obtained from Home Depot. The ZnNP treatments were applied directly on plant leaves (foliar application) using a hand-held sprayer until excess liquid starts dripping. Foliar application was conducted at 8:00 a.m. in a greenhouse setting to simulate field conditions. Treated plants were then placed in a growth chamber, Panasonic environmental test chamber (model MLR-352H) with summer settings (34° C., 60-80% RH). Phytotoxicity was evaluated 72 h post application. Digital photographs of treated leaves were taken for the visual assessment (phenotypic) plant tissue damage. Parallel treatments were done with copper sulfate at 1000 μg/mL (positive control) and DI water (untreated control, UTC) to compare phytotoxicity level with the ZnNP treatments. The appearance of brown necrotic spots, chlorosis, and necrosis on the leaves is indicative of plant tissue damage (i.e. phytotoxicity). Phytotoxicity was rated as follows: No toxicity (−), symptoms appear on less than 5% of the leaves was rated as minimal (+), 5 to 50% was rated as moderate (++), and above 50% was rated as severe (+++). Phytotoxicity studies were carried out in triplicate for each treatment and concentration.

Data set [2] has as its system X. alfalfae. Briefly: MIC by broth microdilution (CLSI) with resazurin. In kind it is cell-based, Xanthomonas alfalfae subsp. citrumelonis. As for the experimental part:
(§1) The antimicrobial efficacy of the ZnNP-Strep and controls were evaluated by the antimicrobial assay methods as previously described. Briefly, Microplate Alamar Blue Assay (MABA) was performed to initially screen the antimicrobial efficacy of the NPs. Then, the minimum inhibitory concentration (MIC) was determined by broth microdilution method in accordance with the guidelines of the Clinical and Laboratory Standards Institute (CLSI). As per the CLSI requirements, from a starter culture of 0.5 McFarland Standard, 5×10^5 CFU/well was added to all the wells. […] The accuracy of the MIC determination was improved by adding 10 μL of resazurin dye (0.0125%, w/v) per 100 μL well volume and observing color changes (from blue to pink for live organisms).

The subject of a further data set is P. syringae. Nature of the data set: MIC by broth microdilution (CLSI) with resazurin. It counts as cell-based, Pseudomonas syringae. As for the experimental part:
as §1
(Broth dilution looks for growth in wells or tubes with falling amounts of substance.)

In another data set the test system is E. coli. Nature of the data set: MIC by broth microdilution (CLSI) with resazurin. In kind it is cell-based, Escherichia coli. As for the experimental part:
as §1

Data set [3] has as its system X. alfalfae. Nature of the data set: MBC by CFU plating after dialysis. It counts as cell-based, Xanthomonas alfalfae subsp. citrumelonis. The following applies: Xanthomonas alfalfae; dialysis time N/A; relative to streptomycin concentration. Here is the method: The antimicrobial efficacy of ZnNP-Strep was also studied after dialysis of the particles. The particles were dialyzed to remove any unbound streptomycin and simulate the effect of rainfall on the particles in field conditions. […] The particles were dialyzed for 0, 1, 3, and 12 h and the remaining streptomycin loaded on the particles for each timepoint was quantified by LCMS by diluting the particles with 1% HCl and analyzing them with the previously described method. After streptomycin quantification the particles were diluted to 500 ppm streptomycin and their antimicrobial efficacy was assessed via MIC assay described above. The minimum bactericidal concentration (MBC) of the particles was also assessed by performing colony forming unit (CFU) plating. After 24 h incubation of bacteria with the samples, 100 μL of the treated bacteria was then transferred to nutrient agar plates. They were then spread dry using sterile spreaders (Fisher Scientific) and incubated for 48 h to check for bacterial growth at each concentration tested.

In data set [4] the test system is X. alfalfae. Nature of the data set: MIC of ZnNP-Strep after dialysis (simulated rainfall). It counts as cell-based, Xanthomonas alfalfae subsp. citrumelonis. The following applies: Xanthomonas alfalfae; dialysis time N/A; relative to streptomycin concentration. Here is the method: as §1
The antimicrobial efficacy of ZnNP-Strep was also studied after dialysis of the particles. […] The particles were dialyzed for 0, 1, 3, and 12 h and the remaining streptomycin loaded on the particles for each timepoint was quantified by LCMS by diluting the particles with 1% HCl and analyzing them with the previously described method. After streptomycin quantification the particles were diluted to 500 ppm streptomycin and their antimicrobial efficacy was assessed via MIC assay described above. The minimum bactericidal concentration (MBC) of the particles was also assessed by performing colony forming unit (CFU) plating. […]

[5] abbreviates: 24 h incubation, concentration active.
The mark [6] stands for this setting: highest concentration tested, 1000 μg/mL.

The values that follow come from US12070031B2 (priority 2020, dated 2024).

By MIC is commonly meant the least concentration at which growth counts as inhibited. Usually MBC stands for the lowest tested concentration that kills the bacteria rather than only halting them.

Structures can show the parent of a compound that is named as a salt.

In the case of `O=S(=O)([O-])[O-].[Cu+2]` [Copper sulfate, copper sulfate], the “Phytotoxicity, Tomato sp.” value in data set [1] (1000 μg/mL Cu) is listed as “+++ (above 50% was rated as severe (+++))”. Moreover, the “signs of phytotoxicity (visual)” value in data set [1] (72 hrs after foliar application) was “many brown spots”.
As for `CC(=O)N[C@@H](CS)C(=O)O` [NAC, N-acetylcysteine], the “X. alfalfae (MIC)” value in the data set on X. alfalfae [2] (setting [5]) is reported as “No inhibition”. The growth inhibitory effect result in the data set with X. alfalfae [2] (setting [6]), in the data set with P. syringae (setting [6]) and in the data set on E. coli (setting [6]) was “no growth inhibitory effect” each time. The “P. syringae (MIC)” value with P. syringae (setting [5]) is “No inhibition”. For the same compound, the “E. coli (MIC)” value in the data set with E. coli (setting [5]) is given as “No inhibition”.
For `[H]/N=C(/N)N[C@H]1[C@H](O)[C@@H](O)[C@H](O[C@@H]2O[C@@H](C)[C@](O)(C=O)[C@H]2O[C@@H]2O[C@@H](CO)[C@H](O)[C@@H](O)[C@@H]2NC)[C@@H](N/C(N)=N\[H])[C@@H]1O` [Streptomycin sulfate, streptomycin sulfate], the minimum inhibitory concentration (MIC) is 2 µg/mL in the data set on X. alfalfae [2] (Xanthomonas alfalfae, 24 h incubation, concentration active); 2 µg/mL in the data set with P. syringae (Pseudomonas syringae, 24 h incubation, concentration active); 1 µg/mL in the data set on X. alfalfae [4]; 6 µg/mL against E. coli (Escherichia coli, 24 h incubation, concentration active). For the same compound, the “Phytotoxicity, Tomato sp.” value in data set [1] (1000 μg/mL Strep) was “−”. Besides, the MBC against X. alfalfae [3] was found to be 16 µg/mL.
